Test system: tryparedoxin I
Format: biochemical, Crithidia fasciculata

Structure (SMILES): CCN1C(=O)C=CC1=O [NEM, N-ethylmaleimide]
- residual activity [%]: 24 ± 5%
